Test results published in patent US20250163104A1, “MACROCYCLIC IMMUNOMODULATORS” (priority 2021, published 2025).
Where a SMILES comes first, the peptide text is derived from it. Bridges are numbered along the chain shown (N, C = ends). [ ]: non-standard residue; d: D form. The star is where a group is joined. Bip = N[C@@H](Cc1ccc(-c2ccccc2)cc1)C(=O)O; Phe(4-CN) = N#Cc1ccc(C[C@H](N)C(=O)O)cc1; Phe(4-F) = N[C@@H](Cc1ccc(F)cc1)C(=O)O; Ala(cPent) = N[C@@H](CC1CCCC1)C(=O)O; Ala(cPr) = N[C@@H](CC1CC1)C(=O)O; hPhe = N[C@@H](CCc1ccccc1)C(=O)O; Cha = N[C@@H](CC1CCCCC1)C(=O)O; Cit = NC(=O)NCCC[C@H](N)C(=O)O; Ahp(2) = CCCCC[C@H](N)C(=O)O; Chg = N[C@H](C(=O)O)C1CCCCC1; Phg = N[C@H](C(=O)O)c1ccccc1; Tle = CC(C)(C)[C@H](N)C(=O)O; Carboxymethyl = O=C(O)C*; Nle = CCCC[C@H](N)C(=O)O; Orn = NCCC[C@H](N)C(=O)O; Dab = NCC[C@H](N)C(=O)O; Abu = CC[C@H](N)C(=O)O; Dap = NC[C@H](N)C(=O)O

biological target: T1, human PD-1 / PD-L1-Ig binding on Jurkat cell line over-expressing human PD-1 (Jurkat-PD-1) (Homo sapiens, UniProt Q15116); assay: Jurkat-PD-1 Cell Binding High-Content Screening Assay (CBA); format: cell-based; conditions: Jurkat-PD-1 cells, PE-labeled PD-L1-Ig 20 nM final; read-out: Jurkat HPD1_PDL1 IC50
T1 construct: expressed in transfected cells; host or cells: Jurkat
Method in brief: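 PE-PD-L1-Ig 20 nM final; cells in DMEM/10% FCS; cpd pre-incubation 2 h, 37° C; ligand 1 h; PFA fix + Hoechst 33342; high-content imaging read-out.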

T1 sequence (Q15116 25-288): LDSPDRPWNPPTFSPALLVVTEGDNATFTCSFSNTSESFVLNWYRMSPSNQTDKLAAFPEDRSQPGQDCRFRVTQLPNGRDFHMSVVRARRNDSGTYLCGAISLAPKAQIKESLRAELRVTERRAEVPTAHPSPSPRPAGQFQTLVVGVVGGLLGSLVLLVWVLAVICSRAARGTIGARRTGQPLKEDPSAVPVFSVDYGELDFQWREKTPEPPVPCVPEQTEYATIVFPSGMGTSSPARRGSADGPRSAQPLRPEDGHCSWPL

Structure (SMILES) | IC50 [nM]
CC(C)C[C@H]1NC(=O)[C@H](CCCN)NC(=O)[C@H](CCCNC(N)=O)NC(=O)[C@H](Cc2ccc(-c3ccccc3)cc2)NC(=O)[C@H](CC2CCCC2)NC(=O)[C@H](Cc2c[nH]c3ccccc23)NC(=O)[C@H](CC(=O)O)NC(=O)[C@H](Cc2ccc(OCC(=O)O)cc2)NC(=O)[C@H](CN)NC(=O)CSC[C@@H](C(=O)N[C@@H](C)C(N)=O)NC(=O)[C@H]([C@@H](C)O)NC(=O)[C@H](C(C)C)NC(=O)[C@H](CC2CCCCC2)NC(=O)[C@H](CCN)NC1=O [Compound 1353] ({CH2CO}-[Dap]Y(Carboxymethyl)DW[Ala(cPent)][Bip][Cit][Orn][dL][Dab][Cha]VTCA-NH2; thioether N-14) | 10.9
CC(C)C[C@H]1NC(=O)[C@H](CCCN)NC(=O)[C@H](CCCNC(N)=O)NC(=O)[C@H](Cc2ccc(-c3ccccc3)cc2)NC(=O)[C@H](CC2CC2)NC(=O)[C@H](Cc2c[nH]c3ccccc23)NC(=O)[C@H](CC(=O)O)NC(=O)[C@H](Cc2ccc(OCC(=O)O)cc2)NC(=O)[C@H](CN)NC(=O)CSC[C@@H](C(=O)N[C@@H](C)C(N)=O)NC(=O)[C@H]([C@@H](C)O)NC(=O)[C@H](C(C)C)NC(=O)[C@H](CC2CCCCC2)NC(=O)[C@H](CCN)NC1=O [Compound 1354] ({CH2CO}-[Dap]Y(Carboxymethyl)DW[Ala(cPr)][Bip][Cit][Orn][dL][Dab][Cha]VTCA-NH2; thioether N-14) | 13.9
CCC[C@@H]1NC(=O)[C@H](Cc2c[nH]c3ccccc23)NC(=O)[C@H](CC(=O)O)NC(=O)[C@H](Cc2ccc(OCC(=O)O)cc2)NC(=O)[C@H](CN)NC(=O)CSC[C@@H](C(=O)N[C@@H](C)C(N)=O)NC(=O)[C@H]([C@@H](C)O)NC(=O)[C@H](C(C)C)NC(=O)[C@H](CC2CCCCC2)NC(=O)[C@H](CCN)NC(=O)[C@@H](CC(C)C)NC(=O)[C@H](CCCN)NC(=O)[C@H](CCCNC(N)=O)NC(=O)[C@H](Cc2ccc(-c3ccccc3)cc2)NC1=O [Compound 1355] | 8.2
CC[C@@H]1NC(=O)[C@H](Cc2c[nH]c3ccccc23)NC(=O)[C@H](CC(=O)O)NC(=O)[C@H](Cc2ccc(OCC(=O)O)cc2)NC(=O)[C@H](CN)NC(=O)CSC[C@@H](C(=O)N[C@@H](C)C(N)=O)NC(=O)[C@H]([C@@H](C)O)NC(=O)[C@H](C(C)C)NC(=O)[C@H](CC2CCCCC2)NC(=O)[C@H](CCN)NC(=O)[C@@H](CC(C)C)NC(=O)[C@H](CCCN)NC(=O)[C@H](CCCNC(N)=O)NC(=O)[C@H](Cc2ccc(-c3ccccc3)cc2)NC1=O [Compound 1356] ({CH2CO}-[Dap]Y(Carboxymethyl)DW[Abu][Bip][Cit][Orn][dL][Dab][Cha]VTCA-NH2; thioether N-14) | 5.5
CC(C)C[C@H]1NC(=O)[C@H](CCCN)NC(=O)[C@H](CCCNC(N)=O)NC(=O)[C@H](Cc2ccc(-c3ccccc3)cc2)NC(=O)[C@H](C2CCCCC2)NC(=O)[C@H](Cc2c[nH]c3ccccc23)NC(=O)[C@H](CC(=O)O)NC(=O)[C@H](Cc2ccc(OCC(=O)O)cc2)NC(=O)[C@H](CN)NC(=O)CSC[C@@H](C(=O)N[C@@H](C)C(N)=O)NC(=O)[C@H]([C@@H](C)O)NC(=O)[C@H](C(C)C)NC(=O)[C@H](CC2CCCCC2)NC(=O)[C@H](CCN)NC1=O [Compound 1357] ({CH2CO}-[Dap]Y(Carboxymethyl)DW[Chg][Bip][Cit][Orn][dL][Dab][Cha]VTCA-NH2; thioether N-14) | 4.8
CCCC[C@@H]1NC(=O)[C@H](Cc2c[nH]c3ccccc23)NC(=O)[C@H](CC(=O)O)NC(=O)[C@H](Cc2ccc(OCC(=O)O)cc2)NC(=O)[C@H](CN)NC(=O)CSC[C@@H](C(=O)N[C@@H](C)C(N)=O)NC(=O)[C@H]([C@@H](C)O)NC(=O)[C@H](C(C)C)NC(=O)[C@H](CC2CCCCC2)NC(=O)[C@H](CCN)NC(=O)[C@@H](CC(C)C)NC(=O)[C@H](CCCN)NC(=O)[C@H](CCCNC(N)=O)NC(=O)[C@H](Cc2ccc(-c3ccccc3)cc2)NC1=O [Compound 1358] ({CH2CO}-[Dap]Y(Carboxymethyl)DW[Nle][Bip][Cit][Orn][dL][Dab][Cha]VTCA-NH2; thioether N-14) | 7.3
CC(C)C[C@H]1NC(=O)[C@H](CCCN)NC(=O)[C@H](CCCNC(N)=O)NC(=O)[C@H](Cc2ccc(-c3ccccc3)cc2)NC(=O)[C@H](c2ccccc2)NC(=O)[C@H](Cc2c[nH]c3ccccc23)NC(=O)[C@H](CC(=O)O)NC(=O)[C@H](Cc2ccc(OCC(=O)O)cc2)NC(=O)[C@H](CN)NC(=O)CSC[C@@H](C(=O)N[C@@H](C)C(N)=O)NC(=O)[C@H]([C@@H](C)O)NC(=O)[C@H](C(C)C)NC(=O)[C@H](CC2CCCCC2)NC(=O)[C@H](CCN)NC1=O [Compound 1359] ({CH2CO}-[Dap]Y(Carboxymethyl)DW[Phg][Bip][Cit][Orn][dL][Dab][Cha]VTCA-NH2; thioether N-14) | 7.9
CCCCC[C@@H]1NC(=O)[C@H](Cc2c[nH]c3ccccc23)NC(=O)[C@H](CC(=O)O)NC(=O)[C@H](Cc2ccc(OCC(=O)O)cc2)NC(=O)[C@H](CN)NC(=O)CSC[C@@H](C(=O)N[C@@H](C)C(N)=O)NC(=O)[C@H]([C@@H](C)O)NC(=O)[C@H](C(C)C)NC(=O)[C@H](CC2CCCCC2)NC(=O)[C@H](CCN)NC(=O)[C@@H](CC(C)C)NC(=O)[C@H](CCCN)NC(=O)[C@H](CCCNC(N)=O)NC(=O)[C@H](Cc2ccc(-c3ccccc3)cc2)NC1=O [Compound 1360] ({CH2CO}-[Dap]Y(Carboxymethyl)DW[Ahp(2)][Bip][Cit][Orn][dL][Dab][Cha]VTCA-NH2; thioether N-14) | 10.8
CC(C)C[C@H]1NC(=O)[C@H](CCCN)NC(=O)[C@H](CCCNC(N)=O)NC(=O)[C@H](Cc2ccc(-c3ccccc3)cc2)NC(=O)[C@H](CC2CCCCC2)NC(=O)[C@H](Cc2c[nH]c3ccccc23)NC(=O)[C@H](CC(=O)O)NC(=O)[C@H](Cc2ccc(OCC(=O)O)cc2)NC(=O)[C@H](CN)NC(=O)CSC[C@@H](C(=O)N[C@@H](C)C(N)=O)NC(=O)[C@H]([C@@H](C)O)NC(=O)[C@H](C(C)C)NC(=O)[C@H](CC2CCCCC2)NC(=O)[C@H](CCN)NC1=O [Compound 1361] ({CH2CO}-[Dap]Y(Carboxymethyl)DW[Cha][Bip][Cit][Orn][dL][Dab][Cha]VTCA-NH2; thioether N-14) | 14.9
CC(C)C[C@H]1NC(=O)[C@H](CCCN)NC(=O)[C@H](CCCNC(N)=O)NC(=O)[C@H](Cc2ccc(-c3ccccc3)cc2)NC(=O)[C@H](C(C)(C)C)NC(=O)[C@H](Cc2c[nH]c3ccccc23)NC(=O)[C@H](CC(=O)O)NC(=O)[C@H](Cc2ccc(OCC(=O)O)cc2)NC(=O)[C@H](CN)NC(=O)CSC[C@@H](C(=O)N[C@@H](C)C(N)=O)NC(=O)[C@H]([C@@H](C)O)NC(=O)[C@H](C(C)C)NC(=O)[C@H](CC2CCCCC2)NC(=O)[C@H](CCN)NC1=O [Compound 1362] ({CH2CO}-[Dap]Y(Carboxymethyl)DW[Tle][Bip][Cit][Orn][dL][Dab][Cha]VTCA-NH2; thioether N-14) | 52.9
CC(C)C[C@H]1NC(=O)[C@H](CCCN)NC(=O)[C@H](CCCNC(N)=O)NC(=O)[C@H](Cc2ccc(-c3ccccc3)cc2)NC(=O)[C@H](C(C)C)NC(=O)[C@H](Cc2c[nH]c3ccccc23)NC(=O)[C@H](CC(=O)O)NC(=O)[C@H](Cc2ccc(OCC(=O)O)cc2)NC(=O)[C@H](CN)NC(=O)CSC[C@@H](C(=O)N[C@@H](C)C(N)=O)NC(=O)[C@H]([C@@H](C)O)NC(=O)[C@H](C(C)C)NC(=O)[C@H](CC2CC2)NC(=O)[C@H](CCN)NC1=O [Compound 1363] | 34.5
CC(C)C[C@H]1NC(=O)[C@H](CCCN)NC(=O)[C@H](CCCNC(N)=O)NC(=O)[C@H](Cc2ccc(-c3ccccc3)cc2)NC(=O)[C@H](C(C)C)NC(=O)[C@H](Cc2c[nH]c3ccccc23)NC(=O)[C@H](CC(=O)O)NC(=O)[C@H](Cc2ccc(OCC(=O)O)cc2)NC(=O)[C@H](CN)NC(=O)CSC[C@@H](C(=O)N[C@@H](C)C(N)=O)NC(=O)[C@H]([C@@H](C)O)NC(=O)[C@H](C(C)C)NC(=O)[C@H](CCc2ccccc2)NC(=O)[C@H](CCN)NC1=O [Compound 1364] ({CH2CO}-[Dap]Y(Carboxymethyl)DWV[Bip][Cit][Orn][dL][Dab][hPhe]VTCA-NH2; thioether N-14) | 57.6
CC(C)C[C@H]1NC(=O)[C@H](CCCN)NC(=O)[C@H](CCCNC(N)=O)NC(=O)[C@H](Cc2ccc(-c3ccccc3)cc2)NC(=O)[C@H](C(C)C)NC(=O)[C@H](Cc2c[nH]c3ccccc23)NC(=O)[C@H](CC(=O)O)NC(=O)[C@H](Cc2ccc(OCC(=O)O)cc2)NC(=O)[C@H](CN)NC(=O)CSC[C@@H](C(=O)N[C@@H](C)C(N)=O)NC(=O)[C@H]([C@@H](C)O)NC(=O)[C@H](C(C)C)NC(=O)[C@H](Cc2ccc(C#N)cc2)NC(=O)[C@H](CCN)NC1=O [Compound 1366] ({CH2CO}-[Dap]Y(Carboxymethyl)DWV[Bip][Cit][Orn][dL][Dab][Phe(4-CN)]VTCA-NH2; thioether N-14) | 858
CC(C)C[C@H]1NC(=O)[C@H](CCCN)NC(=O)[C@H](CCCNC(N)=O)NC(=O)[C@H](Cc2ccc(-c3ccccc3)cc2)NC(=O)[C@H](C(C)C)NC(=O)[C@H](Cc2c[nH]c3ccccc23)NC(=O)[C@H](CC(=O)O)NC(=O)[C@H](Cc2ccc(OCC(=O)O)cc2)NC(=O)[C@H](CN)NC(=O)CSC[C@@H](C(=O)N[C@@H](C)C(N)=O)NC(=O)[C@H]([C@@H](C)O)NC(=O)[C@H](C(C)C)NC(=O)[C@H](Cc2ccc(F)cc2)NC(=O)[C@H](CCN)NC1=O [Compound 1367] ({CH2CO}-[Dap]Y(Carboxymethyl)DWV[Bip][Cit][Orn][dL][Dab][Phe(4-F)]VTCA-NH2; thioether N-14) | 21.7
